US7378433B2, “N-[4-(heteroarylmethyl)phenyl]-heteroarylamines” (Janssen Pharmaceutica, N.V., priority 1996, dated 2008)

Test system: RA-metabolism in MCF-7 human breast cancer cells
Experiment: Inhibition of retinoic acid (RA) metabolism
Type: cell-based
Conditions: MCF7, concentration needed to reduce the amount of polar 3H-RA metabolites to 50% of the control, MCF-7 cells
Description: The property to delay the metabolism of retinoic acid can be evidenced in various in vitro and in vivo experiments. A particular in vitro procedure is described in example C.1 and tests the inhibitory activity of the compounds of formula (I) on the metabolism of retinoic acid in human breast cancer cells. The compounds of the present invention were also effective in suppressing induced vaginal keratinization effects in ovariectomized rats as is described in example C.2.
MCF-7 human breast cancer cells were grown as stock cultures according to art-known protocols. One day before the experiment, RA is added to the stock cultures to stimulate RA-metabolism. At the start of the experiment, cell suspensions were incubated in a tissue culture medium containing ^3H-RA as the substrate. Different concentrations of the test compound (dissolved in 1% DMSO) were added to the incubation mixtures, and at the end of the incubation, the unmetabolized RA is separated from its polar metabolites. The fraction containing the polar ^3H-labeled metabolites was collected and counted in a scintillation counter. For each experiment, a control and a blank incubation were run in parallel.

Structure (SMILES) | IC50 [nM]
CC(C)C(c1ccc(Nc2nccs2)cc1)n1ccnc1 (racemic) [Compound 51, (±)-N-[4-[1-(1H-imidazol-1-yl)-2-methylpropyl]phenyl]-2-thiazolamine] | < 10
c1ccc2sc(Nc3ccc(Cn4ccnc4)cc3)nc2c1 [Compound 24, N-[4-(1H-imidazol-1-ylmethyl)-phenyl]-2-benzothiazolamine] | < 10
CCC(CC)C(c1ccc(Nc2nc3ccccc3o2)cc1)n1cncn1 (centres unmarked) [Compound 56, N-[4-[2-ethyl-1-(1H-1,2,4-triazol-1-yl)butyl]phenyl]-2-benzoxazolamine] | < 10

Next, values leading:

IC50 [nM] | Structure (SMILES)
< 10 | CCC(CC)C(c1ccc(Nc2nc3ccccc3s2)cc1)n1cncn1 (racemic) [Compound 25, (±)-N-[4-[2-ethyl-1-(1H-1,2,4-triazol-1-yl)butyl]phenyl]-2-benzothiazol-amine]
< 10 | Cc1csc(Nc2ccc(C(C(C)C)n3ccnc3)cc2)n1 (racemic) [Compound 50, (±)-N-[4-[1-(1H-imidazol-1-yl)-2-methylpropyl]phenyl]-4-methyl-2-thiazolamine]
